The record followed here is ChEMBL document CHEMBL1201862, “PubChem BioAssay data set” (2004).

In assay [1] the target is Peroxisome proliferator-activated receptor gamma/Nuclear receptor coactivator 3 (Homo sapiens, UniProt P37231). The format is functional.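 Also: agonist potency for raising coactivator recruitment to the receptor.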
For the next assay, the target named is Cytochrome P450 2C9 (Homo sapiens, UniProt P11712).
The target in assay [2] is Peroxisome proliferator-activated receptor gamma/Nuclear receptor coactivator 2 (Homo sapiens, UniProt P37231). Type of assay: functional.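 Also: agonist potency for raising coactivator recruitment to the receptor.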
Assay [3] has as its target Peroxisome proliferator-activated receptor gamma/Nuclear receptor coactivator 1 (Homo sapiens, UniProt P37231). Type of assay: functional.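 Also: agonist potency as compounds enhance coactivator SRC-1 recruitment to PPARgamma.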
A further assay addresses T1, Estrogen receptor (Homo sapiens, UniProt P03372).
T1 sequence (P03372 whole entry): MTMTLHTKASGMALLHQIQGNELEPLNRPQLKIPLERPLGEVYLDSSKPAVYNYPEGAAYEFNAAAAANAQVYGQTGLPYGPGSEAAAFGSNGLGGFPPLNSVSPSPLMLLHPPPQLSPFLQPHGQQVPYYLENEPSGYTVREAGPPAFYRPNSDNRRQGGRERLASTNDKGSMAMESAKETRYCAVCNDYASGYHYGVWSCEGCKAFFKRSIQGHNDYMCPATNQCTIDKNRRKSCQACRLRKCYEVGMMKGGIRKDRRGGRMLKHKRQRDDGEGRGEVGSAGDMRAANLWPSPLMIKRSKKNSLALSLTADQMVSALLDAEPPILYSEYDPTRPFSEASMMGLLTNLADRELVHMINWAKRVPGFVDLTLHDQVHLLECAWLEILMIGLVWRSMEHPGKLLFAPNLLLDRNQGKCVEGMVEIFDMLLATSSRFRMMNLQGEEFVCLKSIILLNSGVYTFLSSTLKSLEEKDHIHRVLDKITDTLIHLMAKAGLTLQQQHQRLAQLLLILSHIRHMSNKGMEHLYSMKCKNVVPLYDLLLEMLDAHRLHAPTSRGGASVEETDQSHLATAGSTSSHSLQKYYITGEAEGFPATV

The target in assay [4] is T2, Calpain-2 catalytic subunit (Sus scrofa, UniProt P43367).
T2 sequence (P43367 whole entry): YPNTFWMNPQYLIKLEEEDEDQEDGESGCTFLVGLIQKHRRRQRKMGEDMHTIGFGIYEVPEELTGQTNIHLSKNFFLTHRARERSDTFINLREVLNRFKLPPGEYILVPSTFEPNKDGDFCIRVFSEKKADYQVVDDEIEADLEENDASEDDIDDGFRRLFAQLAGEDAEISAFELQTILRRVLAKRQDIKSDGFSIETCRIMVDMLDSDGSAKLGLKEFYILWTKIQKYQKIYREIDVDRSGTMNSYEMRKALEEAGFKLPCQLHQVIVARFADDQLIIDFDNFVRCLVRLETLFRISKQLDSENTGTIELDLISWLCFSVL
Description: pig calpain II inhibitor potency, dose response, biochemical, fluorogenic peptide substrate (AID 1420). Type of assay: functional.

Assay [5] in a line: inhibitors of PGC1a acetylation in cells, dose response, cell-based, cherry-picked samples (AID 720514).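 Also: potency may reflect raised or lowered acetylation signal.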 The format is functional.
Assay [6] in a line: A549 cell cytotoxicity, dose response, cytotoxicity control, plate reader, cherry-pick, antagonist series (AID 743412). Type of assay: functional, cell-based.
In another assay the target is T3, Protein Tat (Human immunodeficiency virus type 1 group M subtype B (isolate HXB2)(HIV-1), UniProt P04608).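 Also: tat binding to TAR RNA read out by fluorescence polarization.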
T3 sequence (P04608 whole entry): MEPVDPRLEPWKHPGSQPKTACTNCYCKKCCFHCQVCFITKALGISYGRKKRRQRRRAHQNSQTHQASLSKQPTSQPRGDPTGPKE
The format is functional.

The nature of assay [7]: Luminescence Cell-Based Dose Response HTS to Identify Activators of Luciferase Translation or Activity in H4 […] Cells. [Related pubchem assays: 1829 (Project Summary), 1814 (Primary HTS)]. The format is functional.
A short description of assay [8]: cytotoxicity toward NIH3T3 fibroblasts, dose response, counter-screen, cell-based, ATP luminescence, mouse fibroblasts (AID 2010).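 Also: cells exposed to compound for about 90 hours before reading.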 The format is functional. For orientation: Counterscreens check selectivity or assay interference.
Another assay relates to H4. Description: Luminescence Cell-Based Dose Response HTS to Identify Activators of 5'UTR Stem-Loop Driven Prion Protein mRNA Translation in H4 Neuroglioblastoma Cells. [Related pubchem assays: 1829 (Project Summary), 1814 (Primary HTS)]. The format is functional. Particulars: Homo sapiens.
Assay [9] can be described thus: inhibitors of intracellular T. cruzi replication, confirmation, NIH3T3 host cells, beta-gal luminescence (AID 2044).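 Also: intracellular parasites grown in NIH/3T3 mouse fibroblasts as host cells; luminescent beta-galactosidase reporter signal from transgenic T. cruzi replicating inside host cells; inhibitors lower the luminescence signal.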 The format is functional, cell-based.
A further assay has as its target Paired box protein Pax-8 (Homo sapiens, UniProt Q06710). Description: inhibitors of PAX8-driven TPO luciferase reporter, dose response, RMG-I cells, cherry-pick (AID 687027).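 Also: luciferase reporter driven by Pax8 target thyroperoxidase promoter measured by SteadyGlo luminescence.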 Type of assay: functional, cell-based.
The nature of assay [10]: Luminescence Cell-Based Dose Confirmation HTS to Identify Activators of 5'UTR Stem-Loop Driven Alpha-Synuclein mRNA Translation in H4 Neuroglioblastoma Cells. [Related pubchem assays: 1829 (Project Summary), 1814 (Primary HTS)]. The format is functional.
Another assay deals with Cytochrome P450 2C19 (Homo sapiens, UniProt P33261). Description: Cytochrome panel assay with activity outcomes. Panel member name: p450-cyp2c19 Compounds with AC50 equal or less than 10 uM are considered active. The format is functional. Particulars: read-out: AC50.
Assay [11] concerns the target T4, Long-chain-fatty-acid--AMP ligase FadD28 (Mycobacterium tuberculosis, UniProt P9WQ59).
T4 sequence (P9WQ59 whole entry): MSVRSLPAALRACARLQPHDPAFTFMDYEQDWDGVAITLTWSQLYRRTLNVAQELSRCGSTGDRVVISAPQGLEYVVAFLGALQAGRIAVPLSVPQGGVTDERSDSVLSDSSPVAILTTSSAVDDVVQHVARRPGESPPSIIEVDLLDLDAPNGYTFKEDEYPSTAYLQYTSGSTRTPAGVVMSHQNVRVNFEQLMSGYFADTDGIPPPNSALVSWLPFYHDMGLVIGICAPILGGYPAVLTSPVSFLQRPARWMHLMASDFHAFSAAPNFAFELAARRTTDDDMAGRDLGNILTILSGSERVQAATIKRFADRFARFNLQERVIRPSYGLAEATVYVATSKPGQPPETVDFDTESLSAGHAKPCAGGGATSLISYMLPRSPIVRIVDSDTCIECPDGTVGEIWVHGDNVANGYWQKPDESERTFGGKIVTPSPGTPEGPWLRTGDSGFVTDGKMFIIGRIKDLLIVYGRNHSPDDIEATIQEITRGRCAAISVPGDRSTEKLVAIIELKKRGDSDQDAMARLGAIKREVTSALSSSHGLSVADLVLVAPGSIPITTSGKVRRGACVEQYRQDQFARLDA
Description: Fluorescence polarization aasay to screen for inhibitors that compete for the binding of FadD28 to a bisubstrate Measured in Biochemical System Using Plate Reader - 2147-01_Inhibitor_Dose_CherryPick_Activity. Type of assay: functional, Mycobacterium tuberculosis H37Rv. (In general: Polarisation of emitted light reports the rotation of a fluorescent probe.)

The target of the next assay is Large T antigen (Simian virus 40, UniProt P03070). Type of assay: functional, Betapolyomavirus macacae.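 Also: Confirmatory-stage PubChem screen for compounds that inhibit SV40 T antigen.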
Assay [12] concerns the target T5, Heat shock factor protein 1 (Mus musculus, UniProt P38532).
T5 sequence (P38532 whole entry): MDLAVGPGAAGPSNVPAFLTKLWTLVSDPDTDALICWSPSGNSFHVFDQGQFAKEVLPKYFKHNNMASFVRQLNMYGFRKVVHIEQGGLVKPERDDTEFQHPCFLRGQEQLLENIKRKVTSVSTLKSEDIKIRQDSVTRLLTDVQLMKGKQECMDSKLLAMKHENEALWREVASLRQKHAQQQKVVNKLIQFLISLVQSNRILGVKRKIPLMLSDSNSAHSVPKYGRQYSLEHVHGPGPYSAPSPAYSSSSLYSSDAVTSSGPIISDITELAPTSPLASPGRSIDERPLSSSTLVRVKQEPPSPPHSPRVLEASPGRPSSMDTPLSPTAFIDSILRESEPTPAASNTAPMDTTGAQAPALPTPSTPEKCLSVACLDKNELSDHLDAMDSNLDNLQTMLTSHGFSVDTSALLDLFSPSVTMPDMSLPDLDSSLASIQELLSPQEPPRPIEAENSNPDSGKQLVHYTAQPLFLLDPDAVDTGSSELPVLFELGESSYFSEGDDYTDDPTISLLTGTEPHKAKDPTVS
The assay is described as follows: inhibition of MG132-induced HSE-luciferase signal, confirmation, cell-based, NIH3T3, luminescence, dose retest (AID 2382).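 Also: NIH3T3 fibroblasts with HSF1-driven luciferase reporter stressed by proteasome inhibitor MG132; luminescence from HSF1-driven luciferase expression after 8 hours of MG132 stress.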 Type of assay: functional.

A short description of assay [13]: control 3'UTR Renilla luciferase suppression, dose response, counter-screen for Shn3 inhibitor project, cell-based, Clone20-Shn3RL, cherry-picked (AID 624133). Type of assay: functional.
Assay [14] in a line: Shn3 3'UTR reporter inhibitors, dose response, cell-based, Clone20 osteoblasts, firefly luciferase, cherry-picked (AID 624132).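 Also: firefly luciferase luminescence from reporter carrying the Shn3 3'UTR in osteoblasts.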 Type of assay: functional.
Assay [15] can be described thus: HepG2 cell cytotoxicity, dose response, cytotoxicity control for Shn3 inhibitor project, CellTiter-Glo, cherry-picked (AID 624134). The format is functional, cell-based. (Cellular ATP, detected with luciferase, serves as a proxy for viable cell number.)
For assay [16], the target named is T5, Heat shock factor protein 1. The assay is described as follows: HSF1 potentiators in luciferase reporter cells, confirmation, cell-based, NIH3T3, luminescence, dose retest (AID 435004).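 Also: stress induced by proteasome inhibitor MG132 added 30 min after compound; luciferase reporter driven by HSF1 response element in NIH3T3 cells; actives raise luminescence as potentiators of the MG132 stress response.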 The format is functional.
Assay [17] is described as follows: off-target signal loss in HeLa-CEM21 co-culture – HeLa F-luc CTL cells, cherry-picked, counter-screen for HIV-1 Env fusion inhibitor project, dose response (AID 652040).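 Also: potency for signal decrease marking cytotoxic or nonspecific inhibition.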 Type of assay: functional, cell-based.
Assay [18] can be described thus: inhibitors of HIV Env-driven cell fusion, dose response, cherry-pick (AID 652057). The format is functional, cell-based.
A short description of assay [19]: ZM109 Env clade C HIV-1 fusion inhibitors, dose response, HeLa effector, CEM target cells, luciferase, cherry-pick (AID 652058). Type of assay: functional, cell-based.

What is called EC50 is the concentration needed to bring the measured effect to its halfway point. Usually AC50 stands for the concentration at which the activity in the assay is half-maximal. In general, IC50 refers to the concentration that gives 50% inhibition.

The source made the active and inactive calls.

Peroxisome proliferator-activated receptor gamma/Nuclear receptor coactivator 3, sequence (P37231 whole entry): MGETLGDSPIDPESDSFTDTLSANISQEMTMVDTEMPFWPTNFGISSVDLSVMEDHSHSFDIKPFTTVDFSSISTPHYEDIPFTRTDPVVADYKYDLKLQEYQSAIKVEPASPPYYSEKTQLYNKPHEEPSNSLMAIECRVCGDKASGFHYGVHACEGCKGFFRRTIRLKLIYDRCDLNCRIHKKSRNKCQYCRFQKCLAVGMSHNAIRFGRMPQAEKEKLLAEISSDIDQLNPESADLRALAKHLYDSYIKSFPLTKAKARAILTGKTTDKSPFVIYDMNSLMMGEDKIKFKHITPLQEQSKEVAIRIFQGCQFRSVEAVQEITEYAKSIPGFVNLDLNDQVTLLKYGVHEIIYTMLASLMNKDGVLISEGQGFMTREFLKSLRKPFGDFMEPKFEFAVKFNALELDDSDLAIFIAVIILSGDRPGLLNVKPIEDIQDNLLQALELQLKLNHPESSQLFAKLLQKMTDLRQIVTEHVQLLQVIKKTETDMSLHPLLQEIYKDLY
Peroxisome proliferator-activated receptor gamma/Nuclear receptor coactivator 3, sequence (Q9Y6Q9 whole entry, further chain): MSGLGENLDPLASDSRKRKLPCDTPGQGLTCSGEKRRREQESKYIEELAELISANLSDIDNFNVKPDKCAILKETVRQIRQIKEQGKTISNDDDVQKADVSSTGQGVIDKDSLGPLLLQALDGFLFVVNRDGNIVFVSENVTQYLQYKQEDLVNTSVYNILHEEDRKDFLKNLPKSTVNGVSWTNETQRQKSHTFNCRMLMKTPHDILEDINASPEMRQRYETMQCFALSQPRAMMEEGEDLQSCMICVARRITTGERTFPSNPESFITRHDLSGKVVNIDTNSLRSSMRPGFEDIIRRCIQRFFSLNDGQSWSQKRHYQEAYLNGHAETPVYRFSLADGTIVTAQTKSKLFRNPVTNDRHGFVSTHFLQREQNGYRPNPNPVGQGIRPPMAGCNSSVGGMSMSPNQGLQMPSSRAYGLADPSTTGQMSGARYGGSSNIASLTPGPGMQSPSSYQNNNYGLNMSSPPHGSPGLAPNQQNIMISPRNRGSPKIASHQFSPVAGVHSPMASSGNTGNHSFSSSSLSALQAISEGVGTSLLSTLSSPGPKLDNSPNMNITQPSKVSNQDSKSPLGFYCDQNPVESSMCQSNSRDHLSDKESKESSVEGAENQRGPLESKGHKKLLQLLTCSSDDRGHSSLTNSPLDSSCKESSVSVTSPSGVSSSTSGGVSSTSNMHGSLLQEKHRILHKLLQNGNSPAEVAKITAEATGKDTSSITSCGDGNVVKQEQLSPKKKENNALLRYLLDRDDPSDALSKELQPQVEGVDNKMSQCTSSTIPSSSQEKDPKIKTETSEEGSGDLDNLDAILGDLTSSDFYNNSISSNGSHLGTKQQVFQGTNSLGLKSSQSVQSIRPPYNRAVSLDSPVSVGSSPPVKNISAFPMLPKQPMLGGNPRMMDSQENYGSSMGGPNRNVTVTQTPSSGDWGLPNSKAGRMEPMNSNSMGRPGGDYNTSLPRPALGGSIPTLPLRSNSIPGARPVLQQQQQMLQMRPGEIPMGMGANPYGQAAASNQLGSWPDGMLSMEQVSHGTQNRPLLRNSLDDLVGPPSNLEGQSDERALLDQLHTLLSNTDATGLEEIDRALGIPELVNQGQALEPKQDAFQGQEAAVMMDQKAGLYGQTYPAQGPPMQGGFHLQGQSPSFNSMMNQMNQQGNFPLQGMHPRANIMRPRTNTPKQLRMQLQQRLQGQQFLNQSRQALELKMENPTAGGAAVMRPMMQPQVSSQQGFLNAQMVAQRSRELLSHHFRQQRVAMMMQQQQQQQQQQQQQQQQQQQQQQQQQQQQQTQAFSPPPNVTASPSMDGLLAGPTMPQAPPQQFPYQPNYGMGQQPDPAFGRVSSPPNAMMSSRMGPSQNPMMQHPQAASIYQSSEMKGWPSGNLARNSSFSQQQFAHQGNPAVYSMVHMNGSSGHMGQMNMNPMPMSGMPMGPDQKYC
Peroxisome proliferator-activated receptor gamma/Nuclear receptor coactivator 2, sequence (P37231 whole entry): as the sequence (P37231 whole entry) above
Peroxisome proliferator-activated receptor gamma/Nuclear receptor coactivator 2, sequence (Q15596 whole entry, further chain): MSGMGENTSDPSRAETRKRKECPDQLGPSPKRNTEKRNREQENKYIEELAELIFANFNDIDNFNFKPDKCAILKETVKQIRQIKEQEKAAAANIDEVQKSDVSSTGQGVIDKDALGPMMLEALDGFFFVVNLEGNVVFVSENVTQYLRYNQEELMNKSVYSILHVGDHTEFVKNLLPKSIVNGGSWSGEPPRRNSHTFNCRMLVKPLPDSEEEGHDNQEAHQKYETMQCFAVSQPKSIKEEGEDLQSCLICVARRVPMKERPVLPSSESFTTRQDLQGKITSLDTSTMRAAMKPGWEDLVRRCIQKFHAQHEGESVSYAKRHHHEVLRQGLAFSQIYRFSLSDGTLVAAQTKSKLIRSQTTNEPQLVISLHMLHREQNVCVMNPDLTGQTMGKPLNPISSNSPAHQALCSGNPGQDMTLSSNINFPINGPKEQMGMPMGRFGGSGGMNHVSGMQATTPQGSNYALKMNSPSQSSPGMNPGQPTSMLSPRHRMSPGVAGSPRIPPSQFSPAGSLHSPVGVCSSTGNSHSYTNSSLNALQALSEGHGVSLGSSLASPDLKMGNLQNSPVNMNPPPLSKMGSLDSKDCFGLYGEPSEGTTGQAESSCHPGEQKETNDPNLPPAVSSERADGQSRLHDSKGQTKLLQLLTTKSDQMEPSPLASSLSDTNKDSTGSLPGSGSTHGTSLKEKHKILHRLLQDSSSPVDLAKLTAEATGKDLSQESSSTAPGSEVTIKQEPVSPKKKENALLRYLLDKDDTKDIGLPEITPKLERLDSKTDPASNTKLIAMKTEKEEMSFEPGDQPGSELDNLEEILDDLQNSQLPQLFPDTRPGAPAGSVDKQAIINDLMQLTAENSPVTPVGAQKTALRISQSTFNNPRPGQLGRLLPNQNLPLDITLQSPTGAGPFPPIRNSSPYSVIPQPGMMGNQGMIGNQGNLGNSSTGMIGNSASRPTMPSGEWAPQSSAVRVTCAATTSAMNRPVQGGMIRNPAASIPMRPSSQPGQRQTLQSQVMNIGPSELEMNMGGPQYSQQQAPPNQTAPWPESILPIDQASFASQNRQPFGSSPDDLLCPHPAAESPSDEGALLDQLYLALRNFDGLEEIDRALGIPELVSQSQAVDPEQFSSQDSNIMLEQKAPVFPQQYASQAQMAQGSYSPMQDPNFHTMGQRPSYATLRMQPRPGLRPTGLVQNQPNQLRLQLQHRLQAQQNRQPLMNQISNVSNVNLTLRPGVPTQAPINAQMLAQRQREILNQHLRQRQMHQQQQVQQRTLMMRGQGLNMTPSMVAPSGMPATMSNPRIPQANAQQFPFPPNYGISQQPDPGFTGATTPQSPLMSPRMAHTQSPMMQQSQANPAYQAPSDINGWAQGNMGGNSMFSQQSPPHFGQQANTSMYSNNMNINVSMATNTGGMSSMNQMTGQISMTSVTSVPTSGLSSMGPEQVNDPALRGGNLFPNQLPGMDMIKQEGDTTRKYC
Cytochrome P450 2C9, sequence (P11712 whole entry): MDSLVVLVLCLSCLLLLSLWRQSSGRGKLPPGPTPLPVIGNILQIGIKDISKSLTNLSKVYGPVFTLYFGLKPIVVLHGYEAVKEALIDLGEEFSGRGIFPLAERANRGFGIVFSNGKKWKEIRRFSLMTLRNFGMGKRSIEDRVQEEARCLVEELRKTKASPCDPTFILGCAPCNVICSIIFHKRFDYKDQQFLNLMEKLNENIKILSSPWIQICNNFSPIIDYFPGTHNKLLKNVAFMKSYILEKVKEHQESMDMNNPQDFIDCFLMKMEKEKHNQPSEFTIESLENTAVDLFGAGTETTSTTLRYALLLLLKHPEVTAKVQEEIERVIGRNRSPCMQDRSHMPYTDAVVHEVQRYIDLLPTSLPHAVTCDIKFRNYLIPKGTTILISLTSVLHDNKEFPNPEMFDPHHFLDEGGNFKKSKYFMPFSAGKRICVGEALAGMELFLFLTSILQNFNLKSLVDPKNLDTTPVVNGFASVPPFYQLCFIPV
Large T antigen, sequence (P03070 whole entry): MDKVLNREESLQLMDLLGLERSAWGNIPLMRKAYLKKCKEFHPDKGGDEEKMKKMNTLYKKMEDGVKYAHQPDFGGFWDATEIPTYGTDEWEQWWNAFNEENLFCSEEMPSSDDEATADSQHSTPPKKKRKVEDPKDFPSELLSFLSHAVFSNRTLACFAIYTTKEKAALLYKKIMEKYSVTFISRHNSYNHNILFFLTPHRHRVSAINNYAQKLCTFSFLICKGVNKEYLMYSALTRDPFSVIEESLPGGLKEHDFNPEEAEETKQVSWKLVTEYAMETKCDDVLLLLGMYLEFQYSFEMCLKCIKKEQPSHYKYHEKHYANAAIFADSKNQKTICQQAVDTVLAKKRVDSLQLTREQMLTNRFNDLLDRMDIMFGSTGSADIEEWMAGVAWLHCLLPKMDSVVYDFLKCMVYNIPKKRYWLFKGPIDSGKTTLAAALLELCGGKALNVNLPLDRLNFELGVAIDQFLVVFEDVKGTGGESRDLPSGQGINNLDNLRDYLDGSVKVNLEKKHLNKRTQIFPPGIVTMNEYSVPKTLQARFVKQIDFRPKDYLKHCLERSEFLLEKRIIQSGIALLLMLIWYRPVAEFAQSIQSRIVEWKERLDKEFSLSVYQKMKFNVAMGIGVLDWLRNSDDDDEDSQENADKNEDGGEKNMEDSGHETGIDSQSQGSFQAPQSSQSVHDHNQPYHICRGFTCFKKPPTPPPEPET

With `Cc1nn(-c2ccc(Cl)cc2)c2sc(C(=O)c3c(N)n(C)c(=O)n(C)c3=O)cc12`, the concentration giving a half-maximal response (EC50) in assay [1] was 33.3 µM (not active); in assay [2] it was 18 µM (not active); in [3], 18.4 µM (not active). The AC50 at Cytochrome P450 2C9 was 25.1 µM (inconclusive).
Take `Fc1ccc(-c2nnc(-n3nnc4ccccc43)c3ccccc23)cc1`: the IC50 on Estrogen receptor was 26.3 µM (active).
Take `Cc1cc(C)c(NC(=O)CSc2nc3ccc(NC(=O)CSc4nnnn4Cc4ccccc4)cc3s2)c(C)c1`: the IC50 at Estrogen receptor was > 50 µM (not active).
Consider `O=C(COn1nnc2ccc(Cl)cc21)NC12CC3CC(CC(C3)C1)C2`, for which the IC50 in [4] is reported as > 50 µM (not active). Also, in [5], the AC50 is 31.5 µM (active).
With `CCC(=O)N(C)C[C@H]1Oc2cc(C#CCC(C)C)ccc2S(=O)(=O)N([C@H](C)CO)C[C@@H]1C`, the half-maximal activity concentration (AC50) in assay [6] was 32.1 µM (active).
As to `CCOC(=O)/C=C1\SCC(=O)N1CC(=O)NC(C)c1ccc(F)cc1` (stereo not drawn), the IC50 at Protein Tat was > 100 µM (active).
As for `N#CC1(NC(=O)Cn2ncc(Cl)c(Cl)c2=O)CCCCC1`, the concentration for a half-maximal effect (EC50) is > 60 µM (not active) in assay [7]; 3.27 µM (active) in assay [8]; > 120 µM (not active) with H4; 2.22 µM (active) in [9]; > 120 µM (not active) in assay [10]. The results for the AC50 (in assay [5]; at Paired box protein Pax-8) were 10.8 µM (active) and 3.01 µM (active), respectively.
For the molecule `Cc1cccc(NC(=O)Cn2c(=O)n3nc(CCn4nc(C)cc4C)nc3c3ccccc32)c1`, the half-maximal activity concentration (AC50) on Cytochrome P450 2C19 was 0.0355 µM (inconclusive); in [11], 44.4 µM (active).
As to `Cc1ccc(CNC(=O)COc2ccc(C(=O)c3ccc(F)cc3)cc2)cc1`, the EC50 in assay [1], in assay [2] and in assay [3] was > 79.4 µM (not active) each time.
Turning to `CCOC(=O)CCC(=O)Nc1ccccc1C(N)=O`, on Estrogen receptor, the half-inhibitory concentration (IC50) was > 50 µM (not active).
On to `CCC(C)(C)n1nnnc1C(c1ccc2ncccc2c1)N1CCN(c2ccc(O)cc2)CC1` (stereo not drawn), for which the concentration for half-maximal inhibition (IC50) on Protein Tat is > 100 µM (active); at Large T antigen, 34.6 µM (active).
Regarding `COc1ccc(-c2c(C#N)c(C)nc3c2C(=O)c2ccccc2-3)cc1`, the concentration giving a half-maximal response (EC50) in assay [1] is 48.3 µM (not active); in assay [2], 32.6 µM (not active); in assay [3], 55.3 µM (not active).
Turning to `COc1ccccc1C(=O)Nc1nc(-c2cccs2)c(NC(C)=O)s1`, the IC50 at Estrogen receptor was 19 µM (active).
With `N#Cc1c(NC(=O)CSc2ncccn2)oc(-c2ccccc2)c1-c1ccccc1`, the half-inhibitory concentration (IC50) at Estrogen receptor is 9.58 µM (active). In assay [12], the EC50 was 9.25 µM (active).
Take `Fc1ccc(/C=C2\CCCC3=C2Nc2ncnn2C3c2ccc(F)cc2)cc1` (stereo not drawn): the AC50 was 9.46 µM (active) in [5], 11.3 µM (active) in assay [13], 8.47 µM (active) in assay [14] and 37.9 µM (active) in [15]. The EC50 in assay [16] is 20.7 µM (active).
With `Nc1nc(-c2cccs2)c(-c2cccs2)s1`, in assay [11], the AC50 is > 100 µM (inactive).
For `CCOC(=O)c1ccc(NC2c3ncccc3C(=O)N2Cc2ccc(F)cc2)cc1` (stereo not drawn), the concentration at half-maximal activity (AC50) in assay [17] is 2.84 µM (active); in assay [18], 3.06 µM (active); in [19], 0.521 µM (active).
As to `N#Cc1c(N)nc(SCC(=O)NC2CCCCC2)c(C#N)c1-c1ccc(Cl)cc1`, the concentration giving a half-maximal response (EC50) is given as 37.1 µM (not active) in assay [1], 21.9 µM (not active) in [2] and 34.6 µM (not active) in assay [3].
